Results: patent publication US12371454B2, “Cyclic peptide compound having Kras inhibitory action” (priority 2019, dated 2025)
pIC50: −log10 of the molar value. Positions of bridges follow the written chain, without caps; N, C: chain ends. Non-standard residues stand in square brackets, D forms with d. Residues, ends and D or L forms follow the SMILES beside them. *: point of attachment. hPhe(3-Cl-4-CF3) = N[C@@H](CCc1ccc(C(F)(F)F)c(Cl)c1)C(=O)O; hPhe(3-F,4-CF3) = N[C@@H](CCc1ccc(C(F)(F)F)c(F)c1)C(=O)O; NMePhe(4-Cl) = CN[C@@H](Cc1ccc(Cl)cc1)C(=O)O; NMePhe(2-Cl) = CN[C@@H](Cc1ccccc1Cl)C(=O)O; NMePhe(3-F) = CN[C@@H](Cc1cccc(F)c1)C(=O)O; hNle(7,7-F2) = N[C@@H](CCCCC(F)F)C(=O)O; NMeGly(cPent) = CN[C@H](C(=O)O)C1CCCC1; NMeCha = CN[C@@H](CC1CCCCC1)C(=O)O; NMeChg = CN[C@H](C(=O)O)C1CCCCC1; Gly(cPr) = N[C@H](C(=O)O)C1CC1; NMeD = CN[C@@H](CC(=O)O)C(=O)O; NMeL = CN[C@@H](CC(C)C)C(=O)O; NMeV = CN[C@H](C(=O)O)C(C)C; d(β3hA) = C[C@@H](N)CC(=O)O; NMeA = CN[C@@H](C)C(=O)O; NMeAib = CNC(C)(C)C(=O)O; Piperidide = C1CCN(*)CC1; Pyrrolidide = C1CCN(*)C1; dNMeA = CN[C@H](C)C(=O)O; Ac5c = NC1(C(=O)O)CCCC1; Aze = O=C(O)[C@@H]1CCN1; Sar = CNCC(=O)O

What follows are compounds tested against T1, Kras and SOS1 (biotin-tagged human Kras loaded with GDP, His-tagged human SOS1) (Homo sapiens, UniProt P01116, G12D) (assay: Protein-protein interaction inhibition between Kras and SOS1 (KrasGl2D-SOS PPI) using AlphaScreen). Details: AlphaScreen; biotin-tagged human Kras loaded with GDP, His-tagged human SOS1; read-out: KRAS G12D-SOS PPI IC50.
T1 construct: made in house; host or cells: E. coli (stated for Kras only)
T1 sequence (P01116 1-188 isoform P01116-2 G12D): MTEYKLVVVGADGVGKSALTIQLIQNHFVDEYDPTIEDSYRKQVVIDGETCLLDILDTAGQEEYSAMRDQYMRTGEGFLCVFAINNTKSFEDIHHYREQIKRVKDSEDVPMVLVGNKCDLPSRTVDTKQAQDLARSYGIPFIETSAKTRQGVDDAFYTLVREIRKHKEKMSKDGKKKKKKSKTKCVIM
Format: binding
Method: Protein-Protein Interaction Inhibition Between Kras and SOS1 (KrasGl2D-SOS PPI) Using AlphaScreen
Protein-protein interaction inhibition (PPI) between Kras and SOS1 was measured by energy transfer from nickel-conjugated donor beads to streptavidin-conjugated acceptor beads using biotin-tagged human Kras expressed in E. coli and loaded with GDP after purification and His-tagged human SOS1 enzyme. This measurement utilizes the phenomenon in which donor beads are irradiated with light at 680 nm, such that energy is transferred to acceptor beads through singlet oxygen and light at 520-620 nm is detected from the acceptor beads.
Inhibition of binding between K-ras and SOS1 is known to inhibit signaling downstream of Kras.

Structure (SMILES)	pIC50
CC[C@H](C)[C@@H]1NC(=O)[C@H](C)N(C)C(=O)C[C@@H](C)NC(=O)[C@H](C(C)C)N(C)C(=O)C2(CCCC2)NC(=O)[C@@H]2CCCN2C(=O)[C@H](CCc2ccc(C(F)(F)F)c(Cl)c2)NC(=O)[C@H]2CCCN2C(=O)[C@H](CC2CCCCC2)N(C)C(=O)[C@@H]2CCN2C(=O)CN(C)C1=O [Compound 77] (cyclo([Ac5c][NMeV][d(β3hA)][NMeA]I[Sar][Aze][NMeCha][dP][hPhe(3-Cl-4-CF3)]P))	7.00
CC[C@H](C)[C@@H]1NC(=O)[C@H](C)N(C)C(=O)C[C@@H](C)NC(=O)[C@H](C2CCCC2)N(C)C(=O)C2(CCCC2)NC(=O)[C@@H]2CCCN2C(=O)[C@H](CCc2ccc(C(F)(F)F)c(Cl)c2)NC(=O)CN(C)C(=O)[C@H](Cc2ccccc2Cl)N(C)C(=O)[C@@H]2CCCN2C(=O)CN(C)C1=O [Compound 82] (cyclo([Ac5c][NMeGly(cPent)][d(β3hA)][NMeA]I[Sar]P[NMePhe(2-Cl)][Sar][hPhe(3-Cl-4-CF3)]P))	6.85
CC(C)C[C@H]1C(=O)N[C@@H](CCCCC(F)F)C(=O)N(C)CC(=O)N(C)CC(=O)N(C)[C@@H](CC2CCCCC2)C(=O)N(C)CC(=O)N[C@@H](CCc2ccc(C(F)(F)F)c(Cl)c2)C(=O)N2CCC[C@H]2C(=O)NC2(CCCC2)C(=O)N(C)[C@@H](C2CCCCC2)C(=O)N(C)[C@H](C(=O)N2CCCCC2)CC(=O)N1C [Compound 92] ([NMeL][hNle(7,7-F2)][Sar][Sar][NMeCha][Sar][hPhe(3-Cl-4-CF3)]P[Ac5c][NMeChg][NMeD]-Piperidide; lactam N-11)	8.26
CC[C@H](C)[C@@H]1NC(=O)[C@H](C)N(C)C(=O)C[C@@H](C)NC(=O)[C@H](C(C)C)N(C)C(=O)C(C)(C)N(C)C(=O)[C@@H]2CCCN2C(=O)[C@H](CCc2ccc(C(F)(F)F)c(Cl)c2)NC(=O)CN(C)C(=O)[C@H](CC2CCCCC2)N(C)C(=O)CN(C)C(=O)CN(C)C1=O [Compound 93] (cyclo(I[Sar][Sar][NMeCha][Sar][hPhe(3-Cl-4-CF3)]P[NMeAib][NMeV][d(β3hA)][NMeA]))	8.16
CC[C@H](C)[C@@H]1NC(=O)[C@H](CC(C)C)N(C)C(=O)C[C@@H](C(=O)N(C)C)N(C)C(=O)[C@H](C2CCCC2)N(C)C(=O)C2(CCCC2)NC(=O)[C@H](Cc2cccc(F)c2)N(C)C(=O)[C@H](CCc2ccc(C(F)(F)F)c(Cl)c2)NC(=O)CN(C)C(=O)[C@H](CC2CCCCC2)N(C)C(=O)[C@@H]2CCN2C(=O)[C@H](C)N(C)C1=O [Compound 95] ([NMeL]I[NMeA][Aze][NMeCha][Sar][hPhe(3-Cl-4-CF3)][NMePhe(3-F)][Ac5c][NMeGly(cPent)][NMeD]-NMe2; lactam N-11)	7.96
CC[C@H](C)[C@@H]1NC(=O)[C@H](CC(C)C)N(C)C(=O)C[C@@H](C(=O)N2CCCC2)NC(=O)[C@H](CC(C)C)NC(=O)C(C)(C)N(C)C(=O)[C@H](CC(C)C)NC(=O)[C@H](CCc2ccc(C(F)(F)F)c(F)c2)NC(=O)CN(C)C(=O)[C@H](Cc2ccc(Cl)cc2)N(C)C(=O)CN(C)C(=O)CN(C)C1=O [Compound 96] ([NMeL]I[Sar][Sar][NMePhe(4-Cl)][Sar][hPhe(3-F,4-CF3)]L[NMeAib]LD-Pyrrolidide; lactam N-11)	6.66
CC[C@H](C)[C@@H]1NC(=O)[C@H](C)N(C)C(=O)C[C@@H](C)NC(=O)[C@H](C2CCCC2)N(C)C(=O)C2(CCCC2)NC(=O)[C@@H]2CCCN2C(=O)[C@H](CCc2ccc(C(F)(F)F)c(Cl)c2)NC(=O)[C@@H](C)N(C)C(=O)[C@H](CC(C)C)N(C)C(=O)[C@@H]2CCN2C(=O)[C@H](C)N(C)C1=O [Compound 98] (cyclo([Ac5c][NMeGly(cPent)][d(β3hA)][NMeA]I[NMeA][Aze][NMeL][dNMeA][hPhe(3-Cl-4-CF3)]P))	7.17
CC(C)C[C@H]1C(=O)N[C@@H](C2CC2)C(=O)N(C)CC(=O)N(C)CC(=O)N(C)[C@@H](CC2CCCCC2)C(=O)N(C)CC(=O)N[C@@H](CCc2ccc(C(F)(F)F)c(Cl)c2)C(=O)N2CCC[C@H]2C(=O)NC2(CCCC2)C(=O)N(C)[C@@H](C(C)C)C(=O)N[C@H](C)CC(=O)N1C [Compound 101] (cyclo([Ac5c][NMeV][d(β3hA)][NMeL][Gly(cPr)][Sar][Sar][NMeCha][Sar][hPhe(3-Cl-4-CF3)]P))	6.80
CC[C@H](C)[C@@H]1NC(=O)[C@H](CC(C)C)N(C)C(=O)C[C@@H](C(=O)N(C)C)N(C)C(=O)[C@H](C2CCCC2)N(C)C(=O)[C@H](C(C)C)NC(=O)[C@H](C)N(C)C(=O)[C@H](CCc2ccc(C(F)(F)F)c(Cl)c2)NC(=O)CN(C)C(=O)[C@H](CC2CCCCC2)N(C)C(=O)[C@@H]2CCN2C(=O)[C@H](C)N(C)C1=O [Compound 102] ([NMeL]I[NMeA][Aze][NMeCha][Sar][hPhe(3-Cl-4-CF3)][NMeA]V[NMeGly(cPent)][NMeD]-NMe2; lactam N-11)	7.96
